Molecular target: T1, Rhodobacter sphaeroides BcsA-B complex (cellulose synthase), wild type, BcsA SEQ ID NO: 1, BcsB SEQ ID NO: 3 (Cereibacter sphaeroides, UniProt Q3J125)
T1 construct: pETDuet, E. coli C43; purified, reconstituted in nanodiscs, proteoliposomes or detergent
T1 sequence (Q3J125 1-788): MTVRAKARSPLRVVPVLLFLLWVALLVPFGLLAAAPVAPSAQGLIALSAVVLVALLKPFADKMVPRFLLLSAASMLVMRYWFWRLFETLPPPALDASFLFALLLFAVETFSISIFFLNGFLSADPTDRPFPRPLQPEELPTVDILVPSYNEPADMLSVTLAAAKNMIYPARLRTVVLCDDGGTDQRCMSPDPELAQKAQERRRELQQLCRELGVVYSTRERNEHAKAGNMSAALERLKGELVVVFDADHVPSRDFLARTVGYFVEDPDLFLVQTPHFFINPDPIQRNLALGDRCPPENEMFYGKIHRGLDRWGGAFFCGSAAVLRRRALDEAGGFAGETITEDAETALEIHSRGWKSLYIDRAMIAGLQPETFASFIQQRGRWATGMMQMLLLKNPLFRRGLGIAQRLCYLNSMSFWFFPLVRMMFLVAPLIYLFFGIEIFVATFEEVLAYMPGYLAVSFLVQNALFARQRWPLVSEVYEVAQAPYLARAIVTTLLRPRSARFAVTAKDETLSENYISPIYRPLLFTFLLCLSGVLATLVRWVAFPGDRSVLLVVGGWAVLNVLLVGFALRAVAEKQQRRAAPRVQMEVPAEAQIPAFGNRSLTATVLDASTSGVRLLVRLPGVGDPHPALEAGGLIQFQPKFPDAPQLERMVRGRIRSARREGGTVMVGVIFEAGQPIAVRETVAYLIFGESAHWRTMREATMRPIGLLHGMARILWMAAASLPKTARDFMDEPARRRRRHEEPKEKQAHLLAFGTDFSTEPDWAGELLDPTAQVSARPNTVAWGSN
T1 sequence (Q3J126 21-725 partner): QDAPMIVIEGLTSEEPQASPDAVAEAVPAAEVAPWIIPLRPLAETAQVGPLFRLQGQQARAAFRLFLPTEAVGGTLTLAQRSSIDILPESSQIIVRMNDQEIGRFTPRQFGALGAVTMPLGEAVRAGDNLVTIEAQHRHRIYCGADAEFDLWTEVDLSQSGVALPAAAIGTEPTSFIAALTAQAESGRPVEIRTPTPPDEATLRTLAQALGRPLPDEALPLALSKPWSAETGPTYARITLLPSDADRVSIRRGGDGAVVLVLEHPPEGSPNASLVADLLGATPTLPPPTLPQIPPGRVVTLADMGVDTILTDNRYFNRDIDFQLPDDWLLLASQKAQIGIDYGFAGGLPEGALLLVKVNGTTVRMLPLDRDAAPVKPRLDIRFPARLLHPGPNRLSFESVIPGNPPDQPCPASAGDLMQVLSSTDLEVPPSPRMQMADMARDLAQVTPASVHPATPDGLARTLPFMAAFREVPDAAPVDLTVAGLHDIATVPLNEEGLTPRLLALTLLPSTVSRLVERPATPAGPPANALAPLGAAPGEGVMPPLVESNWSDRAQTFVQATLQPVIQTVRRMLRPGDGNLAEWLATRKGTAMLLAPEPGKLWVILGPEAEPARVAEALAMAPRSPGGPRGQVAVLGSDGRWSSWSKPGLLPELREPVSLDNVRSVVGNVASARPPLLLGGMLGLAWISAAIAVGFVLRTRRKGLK
Test: Cellulose synthesis sedimentation assay, inhibition by nucleoside diphosphates, PL-reconstituted BcsA-B
Assay type: biochemical
Conditions: 0.5 mM UDP-Glc; increasing nucleotide concentrations; 60 min, 37° C.
Experimental: FIG. 4A-4C (also referred to as Example 1, FIG. 4): Product inhibition of cellulose synthase. (FIG. 4A) Enzyme-coupled cellulose synthesis assays were performed as described in FIG. 3 in the absence or presence of 0.1 mg/ml E. coli BesZ. […] Inset: Radioactive sedimentation assay performed with ND-reconstituted BcsA-B synthesizing cellulose in the absence or presence of BcsZ. (FIG. 4B) Inhibition of cellulose synthesis by UDP. Cellulose synthesis sedimentation assays were performed with 1 μM PL-reconstituted BesA-B in the presence of increasing concentrations of the indicated nucleotides and 0.5 mM UDP-Glc for 60 min at 37° C. The obtained product is quantified relative to the polymer formed in the absence of any nucleoside diphosphate. (FIG. 4C) UDP is a competitive inhibitor of cellulose synthase. […] The products are quantified relative to the polymer formed in the absence of UDP and the presence of 5 mM UDP-Glc. […]
Standard cellulose synthase sedimentation assays were performed by incubating 1 μM of cellulose synthase complexes, either in PLs, ND or detergent micelles, in the presence of 30 μM c-di-GMP, 20 mM MgCl2, 5 mM UDP-Glc and 0.25 μCi UDP-[3H]-Glc in AB-buffer lacking glycerol and containing only 0.1 M NaCl. […] Following paper chromatography, the high molecular weight polymer retained at the origin was quantified by scintillation counting. […]

Structure (SMILES)	inhibition of cellulose synthesis by nucleoside diphosphates
Nc1ncnc2c1ncn2[C@@H]1O[C@H](COP(=O)(O)OP(=O)(O)O)[C@@H](O)[C@H]1O [adenosine-diphosphate]	do not inhibit cellulose synthesis
Nc1nc2c(ncn2[C@@H]2O[C@H](COP(=O)(O)OP(=O)(O)O)[C@@H](O)[C@H]2O)c(=O)[nH]1 [guanosine-diphosphate]	do not inhibit cellulose synthesis

Reference: patent US9890407B2, “Method for synthesizing cellulose in vitro” (University of Virginia Patent Foundation, priority 2013, dated 2018)
